This is an account of results in patent publication EP3714904B1, “IMINODIACETIC ACID SUBSTITUTED CYCLODEXTRINS AS POTENTIATORS OF BETA-LACTAM ANTIBIOTICS” (NATIONAL CENTER FOR SCIENTIFIC RESEARCH "DEMOKRITOS" (NCSRD), priority 2019, dated 2020).

Data set [1] addresses NDM-1 (Klebsiella pneumoniae, UniProt C7C422). The data set can be described thus: Spectrophotometric IC50 determination against MBL. The note with it: ± 0.32. The class given is biochemical.
The format of data set [2] is in vivo. Conditions: dosing schemes up to 500 mg/kg. Here is the method:
The acute in-vivo toxicity of β-IDACYD was also determined to provide range-finding doses to be used in in-vivo studies and possibly implicate target organs for toxicity.

The nature of data set [3]: Plasma levels of metal ions, creatinine and urea in infected mice. It counts as in vivo, CD-1 mice. Conditions: 30 mg/kg meropenem + 20 mg/kg β-IDACYD every 2 h for 24 h, 0 h, 6 h, 140 h. Here is the method: Example 10. Examination of the cross-reactivity of β-IDACYD with vital metal ions in mouse plasma and of induction of immune responses in infected mice: In order to examine a potential cross-reactivity of the β-IDACYD with metal ions necessary for the maintenance of homeostasis, plasma was isolated by centrifugation (3,000 rpm, 5 min) from all blood samples collected. The plasma levels of four metal ions (calcium, magnesium, phosphate and iron) as well as the levels of creatinine and urea were determined using an Olympus AU 600 analyser. […] In Fig. 8 is shown the plasma concentration in mg/dL of calcium, iron, phosphate and magnesium ions, as well as urea and creatinine derived from CD-1 mice infected with a lethal dose (10^7 CFU) of NDM-1 producing K. pneumoniae strain LA26. […] Treatment was given every 2h for a 24h period and blood was drawn and plasma was isolated at time points 0h, 6h, 24h and 140h (7d) post treatment initiation.

The subject of data set [4] is L929 fibroblast cells.

Sequence of NDM-1 (C7C422 29-270, looked up): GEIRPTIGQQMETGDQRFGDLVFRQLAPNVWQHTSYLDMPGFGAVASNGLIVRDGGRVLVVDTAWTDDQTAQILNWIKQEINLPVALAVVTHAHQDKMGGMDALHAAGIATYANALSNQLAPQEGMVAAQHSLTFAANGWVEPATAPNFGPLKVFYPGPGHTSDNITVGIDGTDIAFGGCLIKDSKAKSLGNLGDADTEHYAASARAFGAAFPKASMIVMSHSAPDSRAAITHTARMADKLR

`CO[C@@H]1[C@@H](OC)[C@H]2O[C@H]3[C@H](OC)[C@@H](OC)[C@@H](O[C@H]4[C@H](OC)[C@@H](OC)[C@@H](O[C@H]5[C@H](OC)[C@@H](OC)[C@@H](O[C@H]6[C@H](OC)[C@@H](OC)[C@@H](O[C@H]7[C@H](OC)[C@@H](OC)[C@@H](O[C@H]8[C@H](OC)[C@@H](OC)[C@@H](O[C@@H]1[C@@H](CN(CC(=O)O)CC(=O)O)O2)O[C@@H]8CN(CC(=O)O)CC(=O)O)O[C@@H]7CN(CC(=O)O)CC(=O)O)O[C@@H]6CN(CC(=O)O)CC(=O)O)O[C@@H]5CN(CC(=O)O)CC(=O)O)O[C@@H]4CN(CC(=O)O)CC(=O)O)O[C@@H]3CN(CC(=O)O)CC(=O)O` [β-IDACYD] returned an IC50 in data set [1] of 1.63 µM. Also, the acute in-vivo toxicity result in data set [2] is “no deaths and no signs indicative of acute toxicity”. Also, the “plasma levels of calcium, magnesium, phosphate, iron, creatinine and urea” value in data set [3] is reported as “well within the control group range at all times”. Moreover, the “cell morphology under a microscope” value in data set [4] was “did not present any morphological differences characteristic of cytotoxicity”.
